Experimental data as given in US8063212B2, “Imidazolidinonyl aminopyrimidine compounds for the treatment of cancer” (Eli Lilly and Company, priority 2006, dated 2011).
Read-outs that look alike come from different tables or passages of the source.

Assays:
[1] = in man; cited from earlier work
HCT116 murine xenografts = conditions: HCT116 murine xenograft; cited from earlier work
A549 murine xenografts = conditions: A549 murine xenograft; cited from earlier work
[2] = system: NClH460 murine xenografts; conditions: NClH460 murine xenograft; cited from earlier work
Plk1 = molecular target: T1, Plk1 (Homo sapiens, UniProt P53350); test: Plk1 Inhibition Assay; type: biochemical; conditions: Absolute IC50, 5.0 μM ATP, GST-Cdc25c (1-206) substrate, 60 min; MSR 3.6
T1 construct: made in house; host or cells: baculovirus-infected Sf9 cells, treated with okadaic acid before harvest; the substrate was made in E. coli BL21
Text: Human Plk1 cDNA, which may be obtained from a number of sources, such as Incyte (accession number: NM_005030), may be directly linked at one of its termini with a polynucleotide sequence expressing a His6 tag, such as the C-terminal FLAG-His6 tag, and inserted into an appropriate expression vector, such as a pFastBac™ vector (Invitrogen) and transfected into an appropriate system, such as baculovirus similar to what has been reported by Yue-Wei Qian, et al., Science, 282, 1701 (1998) for xPlkk1. If a viral expression system is used, then the virus (e.g., baculovirus bearing a Plk1-Flag-His6 tag polynucleotide construct) is infected into a culture of a suitable host cell, such as Sf9 cells. […]
Plk1 kinase reactions contain Plk1-Flag-His6 tag fusion enzyme (0.2 ng/μL) in a buffer containing 50 mM HEPES, pH 7.3, 1.0 mM dithiothreitol, 5.0 μM ATP, 10 mM MgCl2, 0.01% TRITON® X-100, 0.4 μCi ^33P-ATP, and 0.06 μg/μL GST-Cdc25c (1-206) peptide. […] Wells are dried before addition of 40 μL of MicroScint™ 20 (Packard) and then counted on a Wallac MICROBETA® Jet. The percentage inhibition values from the 10-point concentration response data are subsequently analyzed, for example, using ACTIVITY BASE™ software (IDBS), using a 4-parameter logistic equation. Absolute IC50 values are calculated from the resulting curve fit.

HeLa Cells = test: pHH3(S10), Mitotic Cells, and DNA Content Assays; type: cell-based; conditions: Homo sapiens, 23 hours exposure
Experimental: HeLa Cells from the American Type Culture Collection (ATCC) are plated at 200 cells/well in 96 well […] BIOCOAT™ plates, and are incubated in MEM (Minimum Essential Medium, e.g., GIBCO, catalog #11095) with 10% FBS (Fetal Bovine Serum) in 37° C., 5% CO2 for 24 hours. Cells are treated by adding compound (in 0.25% DMSO) to the medium, dosing at 10 points across the range […] to 0.0098 μM. After 23 hours exposure to the compounds, cells are fixed, for example with the PREFER™ fixative [Anatech LTD., Catalog #414] for 30 min then are permeablized with 0.1% TRITON® X100 in phosphate buffered saline (PBS) solution for 15 min. Cells are washed 3 times with PBS then digested with 50 μg/mL RNAse. Primary antibody, phosphohistone H3 (Upstate Cat#06-570), is added at 1:500 in PBS with 1% bovine serum albumin (BSA) to the cells over night at 4° C. After 3 PBS washes, cells are incubated with Alexa488 labeled secondary antibody (Invitrogen cat #A11008) for 1 hour at room temperature. Again they are washed 3 times with PBS, and then 15 μM propidium iodide (Molecular Probes cat #P3566) is added for 30 min to stain nuclei. Fluorescence Plates are scanned with ACUMEN EXPLORER™ [Laser-scanning fluorescence microplate cytometer (comprising of 488 nm argon ion laser excitation and multiple photomultiplier tube detection), manufactured by TTP LABTECH LTD] to measure phosphohistone H3, DNA content and mitotic cells as measured by DNA condensation. Image analysis are based on cellular fluorescent signals for identifying cells in different subpopulations. pHH3(S10) positive cells are identified by mean intensity at 500-530 nm above the threshold. Total intensity at 655-705 nm from propidium iodide/DNA is used to identify individual cells (cells with DNA content from 2N to 4N) and subpopulations in cell cycle (2N cells, 4N cells). Peak intensity at 575-640 nm is used to identify DNA condensation that is used as the marker to identify mitotic cells among 4N cells. […] The ECso is determined by curve fitting to a four parameter logistic for each output using ACTIVITY BASE™.

HCT116 cells = test: Antiproliferative Assay; type: cell-based; conditions: Homo sapiens, HCT-116, 72 hours, Alamar Blue, n=3, MSR 3.1
Experimental: The effects of compounds on cell proliferation can be determined using cells and cell proliferation methods well-known in the art (Robert C. Squatrito et al., Gynecological Oncology, 58, 101-105, (1995)). For example, HCT116 cells, which may be obtained from the American Type Culture Collection, may be seeded at ˜2000 cells/well in 96-well plates and allowed to attach overnight in a humidified CO2 incubator at 37° C. Following the 20-24 hour incubation, half-log serially diluted compounds are added and the plates are returned to the incubator. After an appropriate length of exposure (e.g., 72 hours), cell proliferation is estimated using well-known methods. In one method, 10 μL of a tetrazolium salt, such as Alamar Blue™ is added to the cell plates. After an appropriate exposure to the dye, fluorescence (530 nm excitation, 580 nm emission) is determined. The resulting IC50 has an MSR of 3.1.

T1 sequence (P53350 whole entry): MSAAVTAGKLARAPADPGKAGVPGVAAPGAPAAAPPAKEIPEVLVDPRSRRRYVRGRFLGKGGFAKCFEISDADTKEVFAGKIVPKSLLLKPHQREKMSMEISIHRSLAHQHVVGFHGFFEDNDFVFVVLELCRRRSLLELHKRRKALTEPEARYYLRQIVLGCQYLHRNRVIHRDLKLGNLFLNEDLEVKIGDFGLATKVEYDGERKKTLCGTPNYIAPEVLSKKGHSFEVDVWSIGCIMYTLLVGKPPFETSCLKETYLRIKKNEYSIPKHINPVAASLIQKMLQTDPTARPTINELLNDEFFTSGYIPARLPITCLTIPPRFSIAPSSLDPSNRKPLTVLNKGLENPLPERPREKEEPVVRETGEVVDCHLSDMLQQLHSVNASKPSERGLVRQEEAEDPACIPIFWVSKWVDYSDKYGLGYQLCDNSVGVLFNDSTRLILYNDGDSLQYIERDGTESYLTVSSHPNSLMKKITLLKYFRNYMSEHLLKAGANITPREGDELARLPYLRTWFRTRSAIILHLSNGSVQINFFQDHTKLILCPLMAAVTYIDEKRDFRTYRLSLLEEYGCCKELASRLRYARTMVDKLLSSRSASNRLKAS

Row | IC50 (Plk1) | EC50 (HeLa Cells; n=1, MSR 2.5, read-out: mitotic EC50) | EC50 (HeLa Cells; n=1, MSR 2.6, read-out: pHH3(s10) EC50) | EC50 (HeLa Cells; n=2, MSR 2.4, read-out: DNA content EC50) | IC50 (HCT116 cells) | SMILES | clearance (CL) [1] | dose limiting toxicity [1] | activity in preclinical model (HCT116 murine xenografts) | activity in preclinical model (A549 murine xenografts) | activity in preclinical model [2]
1 | – | – | – | – | – | CC[C@@H]1C(=O)N(C)c2cnc(Nc3ccc(C(=O)NC4CCN(C)CC4)cc3OC)nc2N1C1CCCC1 [BI-2536] | > 1000 mL/min | dose limited by myelosupression | demonstrated activity | demonstrated activity | demonstrated activity
2 | ~25 nM | 22 nM | 24 nM | 35 nM | 44 nM | CN(C)Cc1cnc(F)cc1-c1cccc2cc(-c3ccnc(NCCN4CCNC4=O)n3)sc12 [Example 4, 1-(2-{4-[7-(5-((Dimethylamino)methyl)-2-fluoropyridin-4-yl)benzo[b]thiophen-2-yl]pyrimidin-2-ylamino}ethyl)imidazolidin-2-one] | – | – | – | – | –
